Results taken from the supplement of paper PMC10883282.
Counter-ions that a name gives are not always drawn. ± gives the standard deviation of the averaged measurements.

Test system: RD-ES
Assay: relative viability vs DMSO control (72 h) (fraction); higher = more viable cells
How it was run: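 Relative viability was measured with ATPLite and expressed as percent growth, averaged across up to triplicate wells. Sarcoma cell lines had been seeded in 384-well plates to reach 80–90% confluence, dosed after 24 h, and incubated 72 h at 37 °C, 5% CO2. All data were rescaled on a scale where 1 is full and 0 is none.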

Row | Compound | relative viability (2 pM) | relative viability (5 pM) | relative viability (15 pM) | relative viability (50 pM) | relative viability (0.00014 µM) | relative viability (0.00041 µM) | relative viability (0.0012 µM) | relative viability (0.0037 µM) | relative viability (0.011 µM) | relative viability (200 fM) | relative viability (600 fM) | relative viability (0.00017 µM) | relative viability (0.00051 µM) | relative viability (0.00152 µM) | relative viability (0.00457 µM) | relative viability (0.01372 µM) | relative viability (0.04115 µM) | relative viability (0.1235 µM) | relative viability (0.3704 µM) | relative viability (1.111 µM) | relative viability (3.333 µM) | relative viability (10 µM)
1 | COc1cc2c(cc1O)CCN[C@]21CS[C@@H]2c3c(OC(C)=O)c(C)c4c(c3[C@H](COC1=O)N1[C@@H]2[C@H]2c3c(cc(C)c(OC)c3O)C[C@@H]([C@@H]1O)N2C)OCO4 [Trabectedin] | 0.979 ± 0.032 | 0.954 ± 0.052 | 0.833 ± 0.06 | 0.581 ± 0.008 | 0.0757 ± 0.0065 | 0.0099 ± 0.002 | 0.00377 ± 0.00023 | 0.0027 ± 0.00085 | 0.00663 ± 0.00032 | 0.9532 ± 0.0081 | 0.985 ± 0.056 | – | – | – | – | – | – | – | – | – | – | –
2 | CN1CCN(c2ccc3nc(-c4c(N)c5c(F)cccc5[nH]c4=O)[nH]c3c2)CC1 [Dovitinib] | – | – | – | – | – | – | – | – | – | – | – | 0.955 ± 0.025 | 0.944 ± 0.067 | 0.949 ± 0.024 | 0.943 ± 0.026 | 0.937 ± 0.014 | 0.893 ± 0.021 | 0.899 ± 0.045 | 0.829 ± 0.027 | 0.575 ± 0.013 | 0.24 ± 0.019 | 0.0296 ± 0.0072
3 | C[C@@H]1COCCN1c1cc(-c2ccnn2C)c2ccnc(-c3ccn[nH]3)c2n1 | – | – | – | – | – | – | – | – | – | – | – | 0.987 ± 0.036 | 1.02 ± 0.044 | 1.04 ± 0.047 | 1.02 ± 0.04 | 1.01 ± 0.034 | 0.957 ± 0.0036 | 0.686 ± 0.026 | 0.279 ± 0.015 | 0.113 ± 0.096 | 0.155 ± 0.019 | 0.156 ± 0.0075
4 | Cn1cc(-c2cc3c(N4CCN(c5ncc([C@@](C)(N)c6ccc(F)cc6)cn5)CC4)ncnn3c2)cn1 [Avapritinib] | – | – | – | – | – | – | – | – | – | – | – | 0.927 ± 0.028 | 0.928 ± 0.034 | 0.934 ± 0.015 | 0.922 ± 0.026 | 0.936 ± 0.02 | 0.932 ± 0.013 | 0.9089 ± 0.0059 | 0.884 ± 0.025 | 0.84 ± 0.044 | 0.787 ± 0.047 | 0.716 ± 0.012
5 | C[C@]1(O)C[C@@H](c2nc(-c3ccc4ccc(-c5ccccc5)nc4c3)c3c(N)nccn32)C1 [Linsitinib] | – | – | – | – | – | – | – | – | – | – | – | 0.986 ± 0.02 | 0.992 ± 0.034 | 0.982 ± 0.017 | 0.967 ± 0.015 | 0.928 ± 0.014 | 0.8432 ± 0.005 | 0.661 ± 0.017 | 0.451 ± 0.028 | 0.382 ± 0.016 | 0.354 ± 0.018 | 0.309 ± 0.0052
6 | Cc1nc(NC(=O)N2CCC[C@H]2C(N)=O)sc1-c1ccnc(C(C)(C)C(F)(F)F)c1 [Alpelisib] | – | – | – | – | – | – | – | – | – | – | – | 0.955 ± 0.069 | 0.949 ± 0.05 | 0.95 ± 0.05 | 0.944 ± 0.046 | 0.894 ± 0.017 | 0.852 ± 0.028 | 0.733 ± 0.025 | 0.641 ± 0.029 | 0.559 ± 0.0059 | 0.485 ± 0.025 | 0.375 ± 0.009
7 | COc1cccc2c1C(=O)c1c(O)c3c(c(O)c1C2=O)C[C@@](O)(C(=O)CO)C[C@@H]3O[C@H]1C[C@H](N)[C@H](O)[C@H](C)O1 [Doxorubicin Hydrochloride] | – | – | – | – | – | – | – | – | – | – | – | 1.01 ± 0.032 | 1.03 ± 0.037 | 1.02 ± 0.014 | 1 ± 0.025 | 0.749 ± 0.0091 | 0.374 ± 0.014 | 0.155 ± 0.011 | 0.036 ± 0.0064 | 0.0178 ± 0.0034 | 0.00453 ± 5.8e-05 | 0.0075 ± 0.00089
8 | CNC(=O)c1ccc(-c2cnc3ncc(Cc4ccc5ncccc5c4)n3n2)cc1F [Capmatinib] | – | – | – | – | – | – | – | – | – | – | – | 0.992 ± 0.014 | 1.005 ± 0.0083 | 0.9871 ± 0.0074 | 0.994 ± 0.017 | 0.98 ± 0.021 | 1 ± 0.018 | 1.01 ± 0.023 | 1.03 ± 0.024 | 1.03 ± 0.025 | 1.02 ± 0.011 | 1 ± 0.028
9 | Cc1ccc(NC(=O)c2ccc(CN3CCN(C)CC3)cc2)cc1Nc1nc(-c2cccnc2)cs1 [Masitinib] | – | – | – | – | – | – | – | – | – | – | – | 0.959 ± 0.018 | 0.957 ± 0.034 | 0.9656 ± 0.0031 | 0.965 ± 0.032 | 0.948 ± 0.041 | 0.985 ± 0.011 | 0.912 ± 0.047 | 0.86 ± 0.05 | 0.726 ± 0.043 | 0.519 ± 0.027 | 0.183 ± 0.0068
